The species entered for assay [1] is Mus musculus. Put plainly: Down-regulation of c-Myc mRNA expression in mouse relative to control. The format is functional.
Assay [2] relates to PC-3. The experiment in a line: Cytotoxicity against human PC3 cells after 72 hrs by CellTiter one aqueous solution assay. It counts as functional, cell-based. As to conditions: PC-3, 72 h.
The test system of assay [3] is HeLa. The experiment in a line: Antiproliferative activity against human HeLa cells at 150 uM after 24 hrs by MTT assay relative to control. It counts as functional. (In general: Tetrazolium dyes change colour on reduction, which living cells bring about.)
Assay [4] deals with PC-3. Put plainly: Cytotoxicity against human PC3 cells at 41 ug/ml after 72 hrs in presence of 0.5 uM 2ME2 by CellTiter one aqueous solution assay relative to control. The format is functional.
Assay [5] has as its system HeLa. The experiment in a line: Growth inhibition of human HeLa cells at 10 uM to 1 mM after 24 hrs by MTT assay relative to control. It counts as functional.
Assay [6] is filed under the species Mus musculus. The experiment in a line: Down-regulation of H-ras mRNA expression in mouse relative to control. It counts as functional.
The test system of assay [7] is HeLa. Put plainly: Antiproliferative activity against human HeLa cells after 24 hrs by MTT assay relative to control. The format is functional.
Assay [8] relates to HeLa. Put plainly: Antiproliferative activity against human HeLa cells at 15 mM after 24 hrs by MTT assay relative to control. It counts as functional.
The test system of assay [9] is PC-3. Put plainly: Cytotoxicity against human PC3 cells at 0.5 uM after 72 hrs in presence of 41 ug/ml eugenol by CellTiter one aqueous solution assay relative to control. It counts as functional.

As for `C=CCc1ccc(O)c(OC)c1` [EUGENOL], the Activity in the assay filed under Mus musculus [1] was determined as 40%; with HeLa [3], 47%; in the assay on PC-3 [4], 50%; in the assay filed under Mus musculus [6], 28%; in the assay with HeLa [7], 84%. Half-maximal inhibition in the assay on PC-3 [2] (IC50) was put at 1000 nM. Further, the “growth inhibition (GI)” value with HeLa [5] is on record as 50%.

For the molecule `Nc1ccn([C@@H]2O[C@H](CO)[C@@H](O)C2(F)F)c(=O)n1` [GEMCITABINE], the Activity is given as 47% in the assay on HeLa [8] and 73% in the assay on HeLa [7].

Turning to `COc1cc2c(cc1O)CC[C@@H]1[C@@H]2CC[C@]2(C)[C@@H](O)CC[C@@H]12` [2-METHOXYESTRADIOL], half-maximal inhibition with PC-3 [2] (IC50) was put at 82 µg/mL. The Activity in the assay on PC-3 [9] is on record as 50%.

By IC50 is commonly meant the concentration that inhibits the measured activity by half.

The record behind these values is ChEMBL document CHEMBL4406796, “Anti-cancer effects of cinnamon: Insights into its apoptosis effects” (Eur J Med Chem, 2019).
